Data published in patent US12534450B2, “Methods and compositions for targeting PD-L1” (Aligos Therapeutics, Inc., priority 2021, dated 2026).

Assays:
PD-1/PD-L1 interaction = test: PD-1/PD-L1 NFAT Reporter Assay (co-culture of Jurkat T cells overexpressing PD-1 and PD-L1 expressing CHO cells); format: cell-based; conditions: co-culture 6 hrs at 37° C., NFAT-mediated luciferase activity
Outline: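 Compounds added to CHO cells expressing surface anti-CD3 and PD-L1, then Jurkat cells with PD-1 and NFAT-driven luciferase seeded on top; co-culture 6 hrs at 37° C. Luminescence read after ONE-Glo addition, EC50 from dose-response fit.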

PD-1/PD-L1 PPI = PD-1/PD-L1 PPI (Homo sapiens, UniProt Q9NZQ7); test: PDL1/PD1 Binding Assay; conditions: PDL1-6×His 0.3 nM, PD1-Fc-Avi-Biotin 2.5 nM, Acceptor/Donor beads, Envision reader
Sequence of PD-1/PD-L1 PPI (Q9NZQ7 19-238 limits assumed): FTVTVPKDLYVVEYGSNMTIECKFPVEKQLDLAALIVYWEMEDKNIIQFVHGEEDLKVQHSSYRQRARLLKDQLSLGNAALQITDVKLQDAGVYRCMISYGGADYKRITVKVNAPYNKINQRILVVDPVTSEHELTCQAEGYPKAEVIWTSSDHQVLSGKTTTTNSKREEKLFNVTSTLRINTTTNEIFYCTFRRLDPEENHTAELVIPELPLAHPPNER
Outline: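 AlphaScreen competition: compound (1% DMSO) preincubated 30 min RT with PDL1-6×His (0.3 nM), then PD1-Fc-Avi-Biotin (2.5 nM) 30 min; anti-His acceptor and streptavidin donor beads (20 ug/mL each) added, 1 h each, dark up to overnight. Buffer 25 mM Hepes pH 7.4, 150 mM NaCl. IC50 by four-parameter fit.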

Structure (SMILES) | EC50 (PD-1/PD-L1 interaction; Homo sapiens, Jurkat, 6 h) [nM] | IC50 (PD-1/PD-L1 PPI) [nM] | EC50 (PD-1/PD-L1 interaction) [nM]
COc1nc(-c2cccc(-c3cccc(NC(=O)c4cn(C)c(=O)n(C)c4=O)c3C)c2Cl)cc2c1[C@@H](NC[C@@H]1CNC(=O)C1)CC2 (single isomer, unassigned) [Compound A-137] | 1000 to 10000 | ≤ 10 | –
COc1nc(-c2cccc(-c3cccc(NC(=O)c4cn(C)c(=O)n(C)c4=O)c3Cl)c2Cl)cc2c1C(N1CC3(CCN(C(=O)OC(C)(C)C)C3)C1)CC2 [Compound D-16] | 100 to 1000 | 10 to 100 | –
COc1nc(-c2cccc(-c3cccc(NC(=O)c4nn(C)c(=O)n(C)c4=O)c3C)c2C)cc2c1[C@@H](N[C@@H]1CCOC[C@@H]1O)CC2 (single isomer, unassigned) [Compound A-75] | 10 to 100 | ≤ 10 | –
COc1nc(-c2cccc(-c3cccc(NC(=O)c4c[nH]c(=O)n(C)c4=O)c3C)c2Cl)cc2c1[C@@H](NC[C@@H]1CCC(=O)N1)CC2 [Compound A-55] | ≤ 10 | ≤ 10 | –
COc1nc(-c2cccc(-c3cccc(NC(=O)c4nn(C)c(=O)n(C)c4=O)c3C)c2Cl)cc2c1[C@H](N[C@@H]1COC[C@H]1O)CC2 (single isomer, unassigned) [Compound A-102] | ≤ 10 | ≤ 10 | –
COc1nc(-c2cccc(-c3cccc(Nc4nccc5nccnc45)c3Cl)c2Cl)cc2c1[C@@H](NC[C@@H]1CCC(=O)N1)CC2 [Compound B-4] | 10 to 100 | ≤ 10 | –
COc1nc(-c2cccc(-c3cccc(NC(=O)c4cn(C)c(=O)n(C)c4=O)c3C)c2C)cc2c1[C@@H](N[C@@H]1CCOC[C@H]1O)CC2 (single isomer, unassigned) [Compound A-89] | 1000 to 10000 | 10 to 100 | –
COc1nc(-c2cccc(-c3cccc(NC(=O)c4cn(C)c(=O)n(C)c4=O)c3C)c2Cl)cc2c1C(NC[C@@H]1CCC(=O)N1)C(O)C2 (single isomer, unassigned) [Compound A-128] | – | ≤ 10 | 100 to 1000
COc1nc(-c2cccc(-c3cccc(NC(=O)c4ccn[nH]c4=O)c3Cl)c2Cl)cc2c1[C@@H](NC[C@@H]1CCC(=O)N1)CC2 [Compound A-51] | ≤ 10 | ≤ 10 | –
COc1nc(-c2cccc(-c3cccc(NC(=O)c4cn(C)c(=O)n(C)c4=O)c3Cl)c2F)cc2c1[C@@H](NC[C@@H]1CCC(=O)N1)CC2 [Compound A-7] | ≤ 10 | ≤ 10 | –
COc1nc(-c2cccc(-c3cccc(NC(=O)c4cn(C)c(=O)n(C)c4=O)c3C)c2F)cc2c1[C@@H](NC[C@@H]1CCC(=O)N1)CC2 [Compound A-8] | ≤ 10 | ≤ 10 | –
COc1nc(-c2cccc(-c3cccc(NC(=O)c4cn(C)c(=O)n(C)c4=O)c3C#N)c2Cl)cc2c1[C@@H](NC[C@@H]1CCC(=O)N1)CC2 [Compound A-57] | ≤ 10 | ≤ 10 | –
COc1nc(-c2cccc(-c3cccc(NC(=O)c4cn(C)c(=O)n(C)c4=O)c3C)c2C)cc2c1[C@H](N[C@@H]1CCOC[C@H]1O)CC2 (single isomer, unassigned) [Compound A-90] | 10 to 100 | ≤ 10 | –
COCCOc1nc(-c2cccc(-c3cccc(NC(=O)c4cn(C)c(=O)n(C)c4=O)c3C)c2Cl)cc2c1[C@@H](NC[C@@H]1CCC(=O)N1)CC2 (single isomer, unassigned) [Compound A-115] | 10 to 100 | ≤ 10 | –
COc1nc(-c2cccc(-c3cccc(NC(=O)c4cn(C)c(=O)n(C)c4=O)c3C)c2Cl)cc2c1[C@@H](NC[C@H]1CCC(=O)N1)CC2 (single isomer, unassigned) [Compound A-113] | 1000 to 10000 | 10 to 100 | –
COc1nc(-c2cccc(-c3cccc(NC(=O)c4cn(C)c(=O)[nH]c4=O)c3C)c2Cl)cc2c1[C@@H](NC[C@@H]1CCC(=O)N1)CC2 [Compound A-56] | 10 to 100 | ≤ 10 | –
COc1nc(-c2cccc(-c3cccc(NC(=O)c4cn(C)c(=O)n(C)c4=O)c3Cl)c2Cl)cc2c1[C@@H](NC[C@@H]1CNC(=O)C1)CC2 (single isomer, unassigned) [Compound A-135] | 100 to 1000 | ≤ 10 | –
COc1nc(-c2cccc(-c3cccc(NC(=O)c4cn(C)c(=O)n(C)c4=O)c3C)c2C)cc2c1[C@H](N[C@@H]1COC[C@H]1O)CC2 (single isomer, unassigned) [Compound A-98] | 100 to 1000 | ≤ 10 | –
COc1nc(-c2cccc(-c3cccc(NC(=O)c4cn(C)c(=O)n(C)c4=O)c3Cl)c2Cl)cc2c1C(N1CC3(CNC(=O)C3)C1)CC2 (single isomer, unassigned) [Compound A-130] | 10 to 100 | ≤ 10 | –
COc1nc(-c2cccc(-c3cccc(NC(=O)c4cn(C)c(=O)n(C)c4=O)c3Cl)c2Cl)cc2c1C(N1CCN3C(=O)CC[C@H]3C1)CC2 (stereo partly shown) [Compound A-117] | 10 to 100 | ≤ 10 | –
COc1nc(-c2cccc(-c3cccc(NC(=O)c4cn(C)c(=O)n(C)c4=O)c3C)c2Cl)cc2c1[C@H](NC[C@H]1CCC(=O)N1)CC2 (single isomer, unassigned) [Compound A-114] | ≤ 10 | ≤ 10 | –

Structure (SMILES) | EC50 (PD-1/PD-L1 interaction; Homo sapiens, Jurkat, 6 h) [nM] | IC50 (PD-1/PD-L1 PPI) [nM] | EC50 (PD-1/PD-L1 interaction) [nM]
COc1nc(-c2cccc(-c3cccc(NC(=O)c4cn(C)c(=O)n(C)c4=O)c3C)c2C)cc2c1[C@@H](N1CC(O)C1)CC2 (single isomer, unassigned) [Compound A-79] | > 5000 | 10 to 100 | –
COc1nc(-c2cccc(-c3cccc(NC(=O)c4cn(C)c(=O)n(C)c4=O)c3C)c2C)cc2c1[C@@H](NC[C@@H]1CCC(=O)N1)CC2 [Compound A-5] | ≤ 10 | ≤ 10 | –
COc1nc(-c2cccc(-c3cccc(NC(=O)c4nn(C)c(=O)n(C)c4=O)c3Cl)c2Cl)cc2c1[C@H](N[C@@H]1CCOC[C@H]1O)CC2 (single isomer, unassigned) [Compound A-94] | ≤ 10 | ≤ 10 | –
CCCCOC(=O)N(C[C@@H]1CCC(=O)N1)[C@H]1CCc2cc(-c3cccc(-c4cccc(NC(=O)c5cn(C)c(=O)n(C)c5=O)c4C)c3Cl)nc(OC)c21 [Compound E-2] | > 10000 | ≤ 10 | –
COc1nc(-c2cccc(-c3cccc(NC(=O)c4cn(C)c(=O)n(C)c4=O)c3C)c2Cl)cc2c1C(NC[C@@H]1CCC(=O)N1)C(F)C2 (single isomer, unassigned) [Compound K-1a] | – | ≤ 10 | 10 to 100
COc1nc(-c2cccc(-c3cccc(NC(=O)c4cn(C)c(=O)n(C)c4=O)c3C)c2C)cc2c1[C@@H](N[C@@H]1COC[C@H]1O)CC2 (single isomer, unassigned) [Compound A-97] | 1000 to 10000 | 10 to 100 | –
COc1nc(-c2cccc(-c3cccc(NC(=O)c4ccn[nH]c4=O)c3C)c2Cl)cc2c1[C@@H](NC[C@@H]1CCC(=O)N1)CC2 [Compound A-52] | 10 to 100 | ≤ 10 | –
COc1nc(-c2cccc(-c3cccc(NC(=O)c4cn(C)c(=O)n(C)c4=O)c3C)c2C)cc2c1[C@H](N[C@@H]1COC[C@@H]1O)CC2 (single isomer, unassigned) [Compound A-106] | 100 to 1000 | ≤ 10 | –
COc1nc(-c2cccc(-c3cccc(NC(=O)c4cn(C)c(=O)n(C)c4=O)c3C)c2Cl)cc2c1C(NCC(N)=O)CC2 [Compound D-9] | 10 to 100 | ≤ 10 | –
COc1nc(-c2cccc(-c3cccc(NC(=O)c4ccnn(C)c4=O)c3Cl)c2Cl)cc2c1[C@@H](NC[C@@H]1CCC(=O)N1)CC2 [Compound A-43] | ≤ 10 | ≤ 10 | –
COc1nc(-c2cccc(-c3cccc(NC(=O)c4cn(C)c(=O)n(C)c4=O)c3Cl)c2Cl)cc2c1C(N[C@@H]1CCOC[C@H]1O)CC2 (stereo partly drawn) [Compound D-6] | 10 to 100 | ≤ 10 | –
COc1nc(-c2cccc(-c3cccc(NC(=O)c4nn(C)c(=O)n(C)c4=O)c3Cl)c2Cl)cc2c1[C@H](N[C@@H]1COC[C@H]1O)CC2 (single isomer, unassigned) [Compound A-100] | ≤ 10 | ≤ 10 | –
COc1nc(-c2cccc(-c3cccc(NC(=O)c4nn(C)c(=O)n(C)c4=O)c3C)c2C)cc2c1[C@@H](N[C@@H]1COC[C@@H]1O)CC2 (single isomer, unassigned) [Compound A-111] | 10 to 100 | ≤ 10 | –
COc1nc(-c2cccc(-c3cccc(NC(=O)c4ccnn(C)c4=O)c3C)c2F)cc2c1[C@@H](NC[C@@H]1CCC(=O)N1)CC2 [Compound A-45] | 10 to 100 | ≤ 10 | –
COc1nc(-c2cccc(-c3ccc(F)c(NC(=O)c4cn(C)c(=O)n(C)c4=O)c3C)c2Cl)cc2c1[C@@H](NC[C@@H]1CCC(=O)N1)CC2 [Compound A-59] | 10 to 100 | ≤ 10 | –
COc1nc(-c2cccc(-c3cccc(NC(=O)c4cn(C)c(=O)n(C)c4=O)c3Cl)c2Cl)cc2c1[C@H](N1CC(OC)C1)CC2 (single isomer, unassigned) [Compound A-25] | ≤ 10 | ≤ 10 | –
COc1nc(-c2cccc(-c3cccc(NC(=O)c4cn(C)c(=O)n(C)c4=O)c3C)c2Cl)cc2c1[C@H](N1CC3(CN(C(C)=O)C3)C1)CC2 (single isomer, unassigned) [Compound A-72] | 10 to 100 | ≤ 10 | –
COc1nc(-c2cccc(-c3cccc(NC(=O)c4cn(C)c(=O)n(C)c4=O)c3Cl)c2C)cc2c1[C@@H](N[C@@H]1CCOC[C@@H]1O)CC2 (single isomer, unassigned) [Compound A-39] | ≤ 10 | ≤ 10 | –
COc1nc(-c2cccc(-c3cccc(NC(=O)c4cn(C)c(=O)n(C)c4=O)c3Cl)c2Cl)cc2c1C(N1CC3(CNC(=O)O3)C1)CC2 [Compound D-15] | 10 to 100 | ≤ 10 | –
COc1nc(-c2cccc(-c3cccc(NC(=O)c4cn(C)c(=O)n(C)c4=O)c3Cl)c2Cl)cc2c1C(NCCO)CC2 [Compound D-5] | 10 to 100 | ≤ 10 | –
